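Tested at 5 concentrations; 48 h exposure; 96-well plates; endpoints linearly interpolated, else capped at highest concentration. GI50 is the concentration that inhibits growth by half.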 The source made the active and inactive calls. No stated cut-off is given here; in the data, active = GI50 up to about 1.1 µM and inactive = higher.
Assays:
Assay in all cases: growth of human tumour cells (NCI), 48 h
CAKI-1 = test system: CAKI-1
HCT-116 = test system: HCT-116
HOP-62 = test system: HOP-62
HOP-92 = test system: HOP-92
HT-29 = test system: HT-29
Hs-578T = test system: Hs-578T
KM12 = test system: KM12
MCF7 = test system: MCF7
MDA-MB-231 = test system: MDA-MB-231
MDA-N = test system: MDA-N
NCI-H23 = test system: NCI-H23
OVCAR-3 = test system: OVCAR-3
OVCAR-8 = test system: OVCAR-8
SF-539 = test system: SF-539
SK-MEL-28 = test system: SK-MEL-28
SK-OV-3 = test system: SK-OV-3
SNB-19 = test system: SNB-19
SNB-75 = test system: SNB-75
TK-10 = test system: TK-10
UACC-257 = test system: UACC-257

Measured: GI50

O=C1C2=Nc3ccccc3C(O)N2c2ccccc21 (stereo not given)
inactive: CAKI-1 48.4 µM | HCT-116 > 83.4 µM | HOP-62 65.3 µM | HOP-92 > 100 µM | HT-29 58.2 µM | Hs-578T 40.5 µM | KM12 > 78.5 µM | MCF7 11.1 µM | MDA-MB-231 14.9 µM | MDA-N 1.84 µM | NCI-H23 3.92 µM | OVCAR-3 11.6 µM | OVCAR-8 32.3 µM | SF-539 49.3 µM | SK-MEL-28 23.4 µM | SK-OV-3 68.2 µM | SNB-19 74.1 µM | SNB-75 23.6 µM | TK-10 > 100 µM | UACC-257 4.09 µM

O=C(O)c1ccc(Nc2nc3ccc(C(F)(F)F)cc3nc2C(=O)O)cc1
inactive: CAKI-1 > 100 µM | HCT-116 > 100 µM | HOP-62 > 100 µM | HOP-92 > 100 µM | HT-29 > 100 µM | Hs-578T > 100 µM | KM12 > 100 µM | MCF7 > 100 µM | MDA-MB-231 > 100 µM | MDA-N > 100 µM | NCI-H23 > 100 µM | OVCAR-3 > 100 µM | OVCAR-8 > 100 µM | SF-539 > 100 µM | SK-MEL-28 > 100 µM | SK-OV-3 > 100 µM | SNB-19 > 100 µM | SNB-75 > 100 µM | TK-10 > 100 µM | UACC-257 > 100 µM

C=C1C(=O)OC2CC3(C)OC3CC/C(C)=C/C(OC(C)=O)C12 (stereo not given)
inactive: CAKI-1 2.13 µM | HCT-116 4.05 µM | HOP-62 18.7 µM | HOP-92 1.82 µM | HT-29 4.15 µM | Hs-578T 13.2 µM | KM12 15.1 µM | MCF7 4.59 µM | MDA-MB-231 12.4 µM | MDA-N 6.12 µM | NCI-H23 13.3 µM | OVCAR-3 10.5 µM | OVCAR-8 4.71 µM | SF-539 6.37 µM | SK-MEL-28 5.56 µM | SK-OV-3 20 µM | SNB-19 18.3 µM | SNB-75 8.77 µM | TK-10 3.61 µM | UACC-257 9.64 µM

CCN(CC)P1(=S)Oc2ccc3ccccc3c2-c2c(ccc3ccccc23)O1
inactive: CAKI-1 > 100 µM | HCT-116 83 µM | HOP-62 > 100 µM | HOP-92 > 100 µM | HT-29 18.5 µM | Hs-578T 40.3 µM | KM12 5 µM | MCF7 > 100 µM | MDA-MB-231 > 100 µM | MDA-N 51.2 µM | NCI-H23 > 100 µM | OVCAR-3 > 100 µM | OVCAR-8 > 100 µM | SF-539 > 100 µM | SK-MEL-28 > 100 µM | SK-OV-3 > 100 µM | SNB-19 > 100 µM | SNB-75 32.2 µM | TK-10 > 100 µM | UACC-257 > 100 µM

Clc1ccc(CN2CCCN(Cc3ccc(Cl)cc3)C2c2cc3ccccc3c3ccccc23)cc1
inactive: CAKI-1 49.8 µM | HCT-116 44.8 µM | HOP-62 > 100 µM | HOP-92 74 µM | HT-29 36.8 µM | Hs-578T 24.4 µM | KM12 60.3 µM | MCF7 37.2 µM | MDA-MB-231 25.4 µM | MDA-N 37.2 µM | NCI-H23 46.3 µM | OVCAR-3 57.9 µM | OVCAR-8 > 100 µM | SF-539 62.2 µM | SK-MEL-28 22.8 µM | SK-OV-3 > 100 µM | SNB-19 > 100 µM | SNB-75 22.4 µM | TK-10 78.5 µM | UACC-257 22.8 µM

Source: ChEMBL document CHEMBL1201862, “PubChem BioAssay data set” (2004)
